# Where two headings read alike, the source gives them in different places.
# How the values were obtained:
# Assay type in all cases: cell-based
# [1] = system: Chicken red blood cells (RBCs); assay: Hemolysis assay
# Protocol: Chicken red blood cells (RBCs) in Alsever’s solution (RBCs, Equicell, Victoria, Australia) were diluted 1 in 20 in PBS (pH 7.4), pelleted by centrifugation, and washed three times in PBS (1,000 g, 10 min). The RBCs were counted using a cell counter (Coulter Particle Counter Z series, Beckman Coulter) and diluted to a final concentration of 2 × 10^7 cells/mL. Aliquots (100 μL) of the RBC solution were seeded into a V-bottomed 96-well plate containing 100 μL of serial dilutions (10–0.08 μM) of the AMP in PBS and incubated in a humidified atmosphere containing 5% CO2 at 37°C for 2 h. Following incubation, the RBCs were pelleted in a centrifuge (1,000 g, 10 min), and the amount of hemoglobin released in 100 μL aliquots of the supernatant was determined by measuring the absorbance at 405 nm using a microplate reader (PerkinElmer 1,420 Multilabel Counter VICTOR3). Positive and negative controls for hemolysis were taken as RBC lysed with 1% v/v Triton X-100 and RBC suspension in PBS, respectively. The percentage of hemolysis was calculated using the following formula: % Hemolysis A405 test sample−A405 negative control / A405 positive control−A405 negative controlx 100.
# The percentage hemolysis was plotted against peptide concentration, and linear regression analysis was used to determine the hemolytic concentration needed to lyse 50% (HC50) of RBCs.
# [2] = system: HEK-293 (ATCC CRL-1573) cells; assay: Inhibition of cell proliferation, MTS assay; settings: for TI (cell proliferation): HEK293, IC50/MIC50
# Protocol: (§1) To determine the inhibition of cell proliferation, 20 μL of 3-(4,5-dimethylthiazol-2-yl)-5-(3-carboxymethoxyphenyl)-2-(4-sulfophenyl)-2H-tetrazolium (MTS) solution (CellTiter 96 AQueous Non-Radioactive Cell Proliferation Assay kit, Promega) was added to the remaining 100 µL from the toxicity assay, and the plates were incubated for a further 1 h at 37°C in a 5% CO2 incubator protected from light. Cell proliferation was determined by measuring absorbance at 490 nm using a microplate reader (PerkinElmer 1,420 Multilabel Counter VICTOR3). Positive and negative controls for inhibition were taken as cells incubated with lysis solution (CytoTox 96® Non-Radioactive Cytotoxicity Assay kit, Promega) and cells incubated in media alone, respectively. The background absorbance of media alone was subtracted from the samples, and the percentage of inhibition was calculated using the following formula: % Inhibition=A490 test sample−A490 negative control/A490 positive control−A490 negative control×100.
# (§2) The percentage of inhibition was plotted against peptide concentration, and linear regression analysis was used to determine the AMP concentration needed to inhibit 50% (IC50) of cell growth.
# [3] = system: H4IIE cells; assay: Inhibition of cell proliferation, MTS assay; settings: for TI (cell proliferation): H4IIE, IC50/MIC50
# Protocol: as §1, §2
# [4] = system: E. coli ATCC 8739; settings: cation-adjusted MHB, 90 min incubation at 37°C, plated on LB agar 12–24 h, lowest concentration giving less than one CFU (≥99.9% reduction), mean ± SD, at least three biological repeats
# Protocol: (§3) For the antimicrobial peptide assays, a 10 mL starter culture was produced by taking single colonies from LB agar plates to inoculate in Lysogeny/Luria Broth (1% w/v Oxoid Tryptone, 0.5% w/v NaCl, 0.5% w/v Oxoid Yeast Extract, pH 7.0, Thermo Scientific Pty, Ltd., Sydney, Australia) for bacteria; S. aureus ATCC 29213 and E. coli ATCC 8739 were grown aerobically at 37°C in an orbital shaker (Minitron, Infors HT) at 200 rpm. After overnight incubation, 0.5–1.0 mL of the starter culture was used to inoculate fresh LB broth (20 mL), and its growth was monitored at 600 nm using a spectrophotometer (model Varian Cary 50 Bio UV-Vis). Bacteria were harvested during the late exponential growth phase, and CFUs/mL were determined using the growth curve data set that correlated OD600 to CFUs/mL.
# (§4) Antibacterial assays were undertaken to determine the minimum inhibitory concentration (MIC), the minimum bactericidal concentration (MBC), and the level of membrane disruption of each of the antimicrobial peptides (AMPs) and multimerized AMPs. […] After the 90-min incubation period, the antimicrobial activity (MIC and MBC) was determined as follows:
# (§5) The CLSI protocol was followed to determine MBC. After incubation, bacteria were serially diluted (1:10) in PBS, plated on LB agar, and incubated for 12–24 h at 37°C; then, the CFUs were quantified. […]
# [5] = system: S. aureus ATCC 29213; assay: microbe, parasite or virus in culture; settings: 90 min incubation at 37°C, plated on LB agar 12–24 h, lowest concentration giving less than one CFU (≥99.9% reduction), mean ± SD, at least three biological repeats
# Protocol: as §3, §4, §5
# [6] = system: E. coli ATCC 8739; settings: cation-adjusted MHB, 1 × 10^5 cells/well, 90 min incubation with peptide at 37°C, then growth monitored 20 h at OD630, Lambert and Pearson analysis, mean ± SD, at least three biological repeats
# Protocol: as §3
# Antibacterial assays were undertaken to determine the minimum inhibitory concentration (MIC), the minimum bactericidal concentration (MBC), and the level of membrane disruption of each of the antimicrobial peptides (AMPs) and multimerized AMPs. For each bacterium, a stock solution (2 × 10^6 cells/mL) in cation-adjusted Mueller Hinton Broth (MHB) was made, and an aliquot was incubated with AMPs within 15 min from viable cell count and stock preparation. […] After the 90-min incubation period, the antimicrobial activity (MIC and MBC) was determined as follows: […]
# [7] = system: HEK-293 (ATCC CRL-1573) cells; assay: Cytotoxicity (cell lysis), LDH release assay; settings: for TI (cell lysis): HEK293, LD50/MBC50
# Protocol: (§6) To determine toxicity toward mammalian cells, 1 × 10^4 cells/well of HEK-293 (ATCC CRL-1573TM) or H4IIE in a total volume of […] in media (Eagle’s Minimum Essential Medium (EMEM) supplemented with 10% v/v fetal bovine serum, 5% v/v L-glutamine and 5% v/v penicillin/streptomycin) were seeded into 96-well plates and cultured at 37°C in a 5% CO2 incubator for 16–20 h. When cells were ≥90% confluent, the 100 µL media was removed and replaced with 50 μL serial dilutions of the AMP in media (final concentration 20–0.5 μM) and cultured at 37°C in a 5% CO2 incubator for 90 min. From each well, 50 µL was transferred to a new plate. To the 50 μL, 50 µL of lactate dehydrogenase (LDH) solution (CytoTox 96® Non-Radioactive Cytotoxicity Assay kit, Promega) was added to each well and incubated for a further 30 min at room temperature and protected from light. Cell death was determined by measuring absorbance at 490 nm using a microplate reader (PerkinElmer 1,420 Multilabel Counter VICTOR3). Positive and negative controls for inhibition were taken as cells incubated with lysis solution (CytoTox 96® Non-Radioactive Cytotoxicity Assay kit, Promega) and cells incubated in media alone, respectively. The background absorbance of media alone was subtracted from the sample absorbance, and the percentage of inhibition was calculated using the following formula: % Cytotoxicity=A490 test sample−A490 negative control/A490 positive control−A490 negative control×100.
# (§7) The percentage of lysis was plotted against peptide concentration, and linear regression analysis was used to determine the AMP concentration needed to lyse 50% (LD50) of the cells.
# [8] = system: H4IIE cells; assay: Cytotoxicity (cell lysis), LDH release assay; settings: for TI (cell lysis): H4IIE, LD50/MBC50
# Protocol: as §6, §7
Compound,"HC50 ([1]; chicken RBCs in PBS pH 7.4, 2 × 10^7 cells/mL stock, 10–0.08 μM, 2 h at 37°C, absorbance 405 nm, 1% Triton X-100 positive control, mean ± SD, at least three biological repeats) [µM]","TI (hemolysis) ([1]; chicken RBCs, HC50/MBC50, MBC50 toward S. aureus 29213)","TI (haemolysis) ([1]; chicken RBCs, HC50/MBC50, MBC50 towards E. coli 8729)",TI (cell proliferation) ([2]; MIC50 toward S. aureus 29213),TI (cell proliferation) ([2]; MIC50 towards E. coli 8729),"IC50 ([2]; HEK293 cells, MTS proliferation assay after 90 min exposure, 1 h MTS, linear regression, mean ± SD, at least three biological repeats) [µM]","IC50 ([3]; H4IIE cells, MTS proliferation assay after 90 min exposure, 1 h MTS, linear regression, mean ± SD, at least three biological repeats) [µM]",TI (cell proliferation) ([3]; MIC50 toward S. aureus 29213),TI (cell proliferation) ([3]; MIC50 towards E. coli 8729),MBC [4] [µM],MBC ([5]; cation-adjusted MHB) [µM],MIC [6] [µM],TI (cell lysis) ([7]; MBC50 toward S. aureus 29213),TI (cell lysis) ([7]; MBC50 towards E. coli 8729),"LD50 ([7]; HEK293 cells, LDH release, 90 min exposure at 37°C, 20–0.5 μM, concentration lysing 50% of cells by linear regression, mean ± SD, at least three biological repeats) [µM]","LD50 ([8]; H4IIE cells, LDH release, 90 min exposure at 37°C, 20–0.5 μM, concentration lysing 50% of cells by linear regression, mean ± SD, at least three biological repeats) [µM]",TI (cell lysis) ([8]; MBC50 toward S. aureus 29213),TI (cell lysis) ([8]; MBC50 towards E. coli 8729),"MBC ([5]; Staphylococcus aureus, ATCC29213, cation-adjusted MHB, read-out: MBC) [µM]"
"CC[C@H](C)[C@H](NC(=O)CN)C(=O)NCC(=O)N[C@@H](C)C(=O)N[C@H](C(=O)N[C@@H](CC(C)C)C(=O)N[C@@H](CCCCN)C(=O)N[C@H](C(=O)N[C@@H](CC(C)C)C(=O)N[C@H](C(=O)N[C@H](C(=O)NCC(=O)N[C@@H](CC(C)C)C(=O)N1CCC[C@H]1C(=O)N[C@@H](C)C(=O)N[C@@H](CC(C)C)C(=O)N[C@H](C(=O)N[C@@H](CO)C(=O)N[C@@H](Cc1c[nH]c2ccccc12)C(=O)N[C@H](C(=O)N[C@@H](CCCCN)C(=O)N[C@@H](CCCNC(=N)N)C(=O)N[C@@H](CCCCN)C(=O)N[C@@H](CCCNC(=N)N)C(=O)N[C@@H](CCC(N)=O)C(=O)N[C@@H](CCC(N)=O)C(N)=O)[C@@H](C)CC)[C@@H](C)CC)[C@@H](C)O)[C@@H](C)O)C(C)C)C(C)C [1. Melittin, Melittin]",0.59 ± 0.04,0.67,0.14,13.18,2.49,9.47 ± 3.63,2.88 ± 0.08,4.01,0.76,8.67 ± 0.93,1.76 ± 0.76,6.89 ± 0.72,0.85,0.17,0.75 ± 0.21,1.79 ± 0.95,2.05,0.41,–
Gentamycin,–,–,–,–,–,–,–,–,–,3.3 ± 0.78,–,2.27 ± 0.33,–,–,–,–,–,–,–
CN[C@H](CC(C)C)C(=O)N[C@H]1C(=O)N[C@@H](CC(N)=O)C(=O)N[C@H]2C(=O)N[C@H]3C(=O)N[C@H](C(=O)N[C@H](C(=O)O)c4cc(O)cc(O)c4-c4cc3ccc4O)[C@H](O)c3ccc(c(Cl)c3)Oc3cc2cc(c3O[C@@H]2O[C@H](CO)[C@@H](O)[C@H](O)[C@H]2O[C@H]2C[C@](C)(N)[C@H](O)[C@H](C)O2)Oc2ccc(cc2Cl)[C@H]1O [Vancomycin],–,–,–,–,–,–,–,–,–,–,–,–,–,–,–,–,–,–,1.61 ± 0.44

# — publication PMC11492869, “Dimerization and lysine substitution of melittin have differing effects on bacteria” (Frontiers in Pharmacology, 2024)
